Experimental data as given in PubChem BioAssay (NCI).
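Cells were grown in 96-well plates and exposed to each compound for 48 hours at five concentrations; endpoints were interpolated linearly between bracketing concentrations, or set to the highest concentration if not reached. GI50 is the concentration that inhibits growth by half. Definition used: TGI = concentration required for complete inhibition of growth.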

Experiments:
Test in all cases: NCI tumour cell line growth inhibition, 48 h
A549 NSCLC = system: A549 NSCLC
MDA-MB-231 breast = system: MDA-MB-231 breast
PC-3 prostate = system: PC-3 prostate
NCI/ADR-RES ovarian = system: NCI/ADR-RES ovarian
HS 578T breast = system: HS 578T breast
M14 melanoma = system: M14 melanoma
LOX IMVI melanoma = system: LOX IMVI melanoma
SK-MEL-2 melanoma = system: SK-MEL-2 melanoma
NCI-H23 lung = system: NCI-H23 lung
RXF 393 renal = system: RXF 393 renal
MOLT-4 leukemia = system: MOLT-4 leukemia
HOP-62 NSCLC = system: HOP-62 NSCLC
MCF7 breast = system: MCF7 breast
SR leukemia = system: SR leukemia
OVCAR-3 ovarian = system: OVCAR-3 ovarian
HL-60(TB) leukemia = system: HL-60(TB) leukemia
SF-295 CNS = system: SF-295 CNS
A498 renal = system: A498 renal
SN12C renal = system: SN12C renal
CCRF-CEM leukemia = system: CCRF-CEM leukemia
K-562 leukemia = system: K-562 leukemia
MALME-3M melanoma = system: MALME-3M melanoma
SK-OV-3 ovarian = system: SK-OV-3 ovarian
BT-549 breast = system: BT-549 breast
COLO 205 colon = system: COLO 205 colon
IGROV1 ovarian = system: IGROV1 ovarian
RPMI-8226 leukemia = system: RPMI-8226 leukemia
ACHN renal = system: ACHN renal
SW-620 colon = system: SW-620 colon
DU-145 prostate = system: DU-145 prostate
SF-268 CNS = system: SF-268 CNS
OVCAR-8 ovarian = system: OVCAR-8 ovarian
NCI-H522 lung = system: NCI-H522 lung
TK-10 renal = system: TK-10 renal
OVCAR-5 ovarian = system: OVCAR-5 ovarian
SF-539 CNS = system: SF-539 CNS
UO-31 renal = system: UO-31 renal
SK-MEL-5 melanoma = system: SK-MEL-5 melanoma
UACC-257 melanoma = system: UACC-257 melanoma
MDA-MB-435 = system: MDA-MB-435
HT29 colon = system: HT29 colon
SNB-19 CNS = system: SNB-19 CNS
HOP-92 NSCLC = system: HOP-92 NSCLC
HCT-116 colon = system: HCT-116 colon
NCI-H460 lung = system: NCI-H460 lung
CAKI-1 renal = system: CAKI-1 renal
U251 CNS = system: U251 CNS
NCI-H226 lung = system: NCI-H226 lung
OVCAR-4 ovarian = system: OVCAR-4 ovarian
SK-MEL-28 melanoma = system: SK-MEL-28 melanoma
T-47D breast = system: T-47D breast
SNB-75 CNS = system: SNB-75 CNS
KM12 colon = system: KM12 colon
UACC-62 melanoma = system: UACC-62 melanoma
786-0 renal = system: 786-0 renal
HCC-2998 colon = system: HCC-2998 colon
HCT-15 colon = system: HCT-15 colon

CC(C)[C@H]1C(=O)N[C@@H](CCCN=C(N)N)C(=O)NCC(=O)N[C@@H](CC(=O)O)C(=O)N[C@H](Cc2ccccc2)C(=O)N1C
GI50 (A549 NSCLC): 31.8 µM | TGI (A549 NSCLC): > 100 µM | GI50 (MDA-MB-231 breast): 1.83 µM | TGI (MDA-MB-231 breast): > 28.9 µM | GI50 (PC-3 prostate): > 100 µM | TGI (PC-3 prostate): > 100 µM | GI50 (NCI/ADR-RES ovarian): > 100 µM | TGI (NCI/ADR-RES ovarian): > 100 µM | GI50 (HS 578T breast): 19.8 µM | TGI (HS 578T breast): > 100 µM | GI50 (M14 melanoma): > 100 µM | TGI (M14 melanoma): > 100 µM | GI50 (LOX IMVI melanoma): 15.5 µM | TGI (LOX IMVI melanoma): > 100 µM | GI50 (SK-MEL-2 melanoma): 1.35 µM | TGI (SK-MEL-2 melanoma): 5.78 µM | GI50 (NCI-H23 lung): 10.6 µM | TGI (NCI-H23 lung): 67.6 µM | GI50 (RXF 393 renal): 2.63 µM | TGI (RXF 393 renal): > 100 µM | GI50 (MOLT-4 leukemia): > 100 µM | TGI (MOLT-4 leukemia): > 100 µM | GI50 (HOP-62 NSCLC): 7.04 µM | TGI (HOP-62 NSCLC): > 100 µM | GI50 (MCF7 breast): 1.4 µM | TGI (MCF7 breast): 3.32 µM | GI50 (SR leukemia): > 100 µM | TGI (SR leukemia): > 100 µM | GI50 (OVCAR-3 ovarian): > 100 µM | TGI (OVCAR-3 ovarian): > 100 µM | GI50 (HL-60(TB) leukemia): > 100 µM | TGI (HL-60(TB) leukemia): > 100 µM | GI50 (SF-295 CNS): > 82.7 µM | TGI (SF-295 CNS): > 100 µM | GI50 (A498 renal): 0.182 µM | TGI (A498 renal): 1.05 µM | GI50 (SN12C renal): 2.33 µM | TGI (SN12C renal): > 25.3 µM | GI50 (CCRF-CEM leukemia): > 100 µM | TGI (CCRF-CEM leukemia): > 100 µM | GI50 (K-562 leukemia): > 100 µM | TGI (K-562 leukemia): > 100 µM | GI50 (MALME-3M melanoma): > 100 µM | TGI (MALME-3M melanoma): > 100 µM | GI50 (SK-OV-3 ovarian): > 100 µM | TGI (SK-OV-3 ovarian): > 100 µM | GI50 (BT-549 breast): 1.6 µM | TGI (BT-549 breast): 3.13 µM | GI50 (COLO 205 colon): > 100 µM | TGI (COLO 205 colon): > 100 µM | GI50 (IGROV1 ovarian): > 62.2 µM | TGI (IGROV1 ovarian): > 100 µM | GI50 (RPMI-8226 leukemia): > 100 µM | TGI (RPMI-8226 leukemia): > 100 µM | GI50 (ACHN renal): > 100 µM | TGI (ACHN renal): > 100 µM | TGI (SW-620 colon): > 100 µM | GI50 (DU-145 prostate): 7.66 µM | TGI (DU-145 prostate): 70.6 µM | GI50 (SF-268 CNS): 7.07 µM | TGI (SF-268 CNS): > 100 µM | GI50 (OVCAR-8 ovarian): 7.35 µM | TGI (OVCAR-8 ovarian): > 100 µM | GI50 (NCI-H522 lung): 2.32 µM | TGI (NCI-H522 lung): 5.7 µM | GI50 (TK-10 renal): 1.43 µM | TGI (TK-10 renal): 4.06 µM | GI50 (OVCAR-5 ovarian): 1.34 µM | TGI (OVCAR-5 ovarian): > 100 µM | GI50 (SF-539 CNS): > 100 µM | TGI (SF-539 CNS): > 100 µM | GI50 (UO-31 renal): > 73.2 µM | TGI (UO-31 renal): > 100 µM | GI50 (SK-MEL-5 melanoma): 0.366 µM | TGI (SK-MEL-5 melanoma): 1.33 µM | GI50 (UACC-257 melanoma): > 27.9 µM | TGI (UACC-257 melanoma): > 100 µM | GI50 (MDA-MB-435): 0.289 µM | TGI (MDA-MB-435): 0.895 µM | GI50 (HT29 colon): > 61.1 µM | TGI (HT29 colon): > 100 µM | GI50 (SNB-19 CNS): 2.66 µM | TGI (SNB-19 CNS): > 100 µM | GI50 (HOP-92 NSCLC): 0.385 µM | TGI (HOP-92 NSCLC): 2.47 µM | GI50 (HCT-116 colon): 1.86 µM | TGI (HCT-116 colon): > 33.4 µM | GI50 (NCI-H460 lung): 31.6 µM | TGI (NCI-H460 lung): > 100 µM | GI50 (CAKI-1 renal): > 28.7 µM | TGI (CAKI-1 renal): > 100 µM | GI50 (U251 CNS): > 23.2 µM | TGI (U251 CNS): > 100 µM | GI50 (NCI-H226 lung): 9.21 µM | TGI (NCI-H226 lung): > 100 µM | GI50 (OVCAR-4 ovarian): > 100 µM | TGI (OVCAR-4 ovarian): > 100 µM | GI50 (SK-MEL-28 melanoma): 31.6 µM | TGI (SK-MEL-28 melanoma): > 100 µM | GI50 (T-47D breast): 2.87 µM | TGI (T-47D breast): > 29.4 µM | GI50 (SNB-75 CNS): 0.12 µM | TGI (SNB-75 CNS): 0.279 µM | GI50 (KM12 colon): > 100 µM | TGI (KM12 colon): > 100 µM | GI50 (UACC-62 melanoma): > 100 µM | TGI (UACC-62 melanoma): > 100 µM | GI50 (786-0 renal): 5.54 µM | TGI (786-0 renal): > 100 µM | GI50 (HCC-2998 colon): > 100 µM | TGI (HCC-2998 colon): > 100 µM | GI50 (HCT-15 colon): 3.09 µM | TGI (HCT-15 colon): > 74.8 µM
